In patent US4346087A, “Antibacterial surface active agent containing azaalkenelactam” (priority 1979, dated 1982):
Values after ≈ are worked out from the molar mass of the structure shown. Like-named read-outs stand apart in the source and are kept apart here.

Legend:
[1] = system: Escherichia coli NIHJ; experiment: MIC against Escherichia coli NIHJ; format: cell-based
Source text: (§1) Below are described the antibacterial activities of the compounds in the compositions according to this invention.
(§2) The testing method complied with the standard method of Japan Sociaty of Chemotherapy.

[2] = system: Staphylococcus aureus FDA 209P; experiment: MIC against Staphylococcus aureus FDA 209P; format: cell-based
Source text: as §1, §2

[3] = system: Desulfovibrio desulfuricans IFO 13699; experiment: MIC against Desulfovibrio desulfuricans; format: cell-based
Source text: as §1, §2

[4] = system: Pseudomonas aruginosa IFO 3443; experiment: MIC against Pseudomonas aeruginosa; format: cell-based
Source text: (§3) Below are described the antibacterial activities of the compounds in the compositions according to this invention. The results of antibacterial activity tests on the N-alkyl-substituted azaalkenelactams and their derivatives having a carboxylate radical of Examples 1 to 70 were as shown in Tables 1 to 3.
as §2

[5] = system: Bacillus subtilis ATCC 6633; experiment: MIC against Bacillus subtilis ATCC 6633; format: cell-based
Source text: as §3, §2

[6] = system: Pasteurella multocida; experiment: MIC against Pasteurella multocida; format: cell-based
Source text: as §3, §2

[7] = system: Salmonella typhinurium; experiment: microbe, parasite or virus in culture; format: cell-based, Salmonella typhimurium
Source text: as §3, §2

[8] = system: Staphylococcus epidermidis; experiment: MIC against Staphylococcus epidermidis; format: cell-based
Source text: as §3, §2

[9] = system: Streptococcus faecalis; experiment: MIC against Streptococcus faecalis; format: cell-based
Source text: as §3, §2

[10] = Escherichia coli, Table 1, azaalkenelactams, heart infusion agar, 37° C., 24 hours, read-out: MIC
[11] = Staphylococcus aureus, FDA209P, Table 1, azaalkenelactams, heart infusion agar, 37° C., 24 hours, read-out: MIC
[12] = Desulfovibrio desulfuricans, IFO13699, Table 1, azaalkenelactams, heart infusion agar, 37° C., 24 hours, read-out: MIC
[13] = Pseudomonas, IFO3443, Table 3, heart infusion agar, 37° C., 24 hours, read-out: MIC
[14] = Bacillus subtilis, ATCC6633, Table 3, heart infusion agar, 37° C., 24 hours, read-out: MIC
[15] = Table 3, heart infusion agar, 37° C., 24 hours, read-out: MIC
[16] = Staphylococcus epidermidis, Table 3, heart infusion agar, 37° C., 24 hours, read-out: MIC
[17] = Enterococcus faecalis, Table 3, heart infusion agar, 37° C., 24 hours, read-out: MIC
[18] = Table 1, azaalkenelactams, heart infusion agar, 37° C., 24 hours
[19] = Table 3, heart infusion agar, 37° C., 24 hours
[20] = Staphylococcus aureus, FDA209P, 24 h
[21] = Desulfovibrio desulfuricans, IFO13699, 24 h
[22] = Bacillus subtilis, ATCC6633, 24 h
[23] = Pasteurella multocida, Table 3, heart infusion agar, 37° C., 24 hours, read-out: MIC

`CCCCCCCCCCCCNCCN1CCN=C(C)CC1=O` [Example 2, 4-dodecylaminoethyl-7-methyl-3,6-dihydro-2H-1,4-diazepin-5-one] showed an MIC [1, 10] of 25 µg/mL (≈ 74.1 µM), an MIC [2, 11] of 12.5 µg/mL (≈ 37 µM) and an MIC [3, 12] of 12.5 µg/mL (≈ 37 µM). It also gave an MIC [4, 13] of 100 µg/mL (≈ 296 µM), an MIC [5, 14] of 12.5 µg/mL (≈ 37 µM) and an MIC ([6]; Pasteurella multocida, 24 h) of under 1.56 µg/mL. It also gave an MIC [7, 15] of 3.12 µg/mL (≈ 9.24 µM), an MIC [8, 16] of 1.56 µg/mL (≈ 4.62 µM) and an MIC [9, 17] of 12.5 µg/mL (≈ 37 µM).
Compound “4-(2-hydroxyhexadecyl)aminoethyl-6-methyl-3,6-dihydro-2H-1,4-diazepin-5-one [Example 41]” has an MIC [1] of 25 µg/mL, an MIC [2, 18] of 3.12 µg/mL and an MIC [3, 18] of 3.12 µg/mL. For the same compound, the MIC [4, 19] was 100 µg/mL, the MIC [5, 19] was 3.12 µg/mL and the MIC [6, 19] was under 1.56 µg/mL. It also gave an MIC [8, 19] of 1.56 µg/mL and an MIC [9, 19] of 6.25 µg/mL.
Compound `CCCCCCCCCCCCCCC(O)CNCCN1CCN=CCC(C)C1=O` (stereo not shown) [Example 66, 4-(2-hydroxyhexadecyl)aminoethyl-6-methyl-2,3,6,7-tetrahydro-1,4-diazocin-5-one] has an MIC ([1]; Escherichia coli, 24 h) of 25 µg/mL (≈ 59 µM), an MIC [2, 20] of 12.5 µg/mL (≈ 29.5 µM) and an MIC [3, 21] of 12.5 µg/mL (≈ 29.5 µM). For the same compound, the MIC ([4]; Pseudomonas, IFO3443, 24 h) was 200 µg/mL (≈ 472 µM), the MIC [5, 22] was 6.25 µg/mL (≈ 14.8 µM) and the MIC [6, 23] was under 1.56 µg/mL. The MIC [7, 15] was 3.12 µg/mL (≈ 7.36 µM), the MIC [8, 16] was 1.56 µg/mL (≈ 3.68 µM) and the MIC ([9]; Enterococcus faecalis, 24 h) was 6.25 µg/mL (≈ 14.8 µM).
`CCCCCCCCCCCCCCC(O)CNCCN1CCN=CC(C)(C)C1=O` (stereo not shown) [Example 59, 4-(2-hydroxyhexadecyl)aminoethyl-6,6-dimethyl-3-hydro-2H-1,4-diazepin-5-one] showed an MIC [1, 10] of 25 µg/mL (≈ 59 µM), an MIC [2, 11] of 6.25 µg/mL (≈ 14.8 µM) and an MIC [3, 12] of 3.12 µg/mL (≈ 7.36 µM). For the same compound, the MIC [4, 13] was 100 µg/mL (≈ 236 µM), the MIC [5, 22] was 3.12 µg/mL (≈ 7.36 µM) and the MIC [6, 23] was under 1.56 µg/mL. It also gave an MIC [7, 15] of 3.12 µg/mL (≈ 7.36 µM), an MIC [8, 16] of 1.56 µg/mL (≈ 3.68 µM) and an MIC [9, 17] of 6.25 µg/mL (≈ 14.8 µM).
Work on `CCCCCCCCCCCCCCC(O)CNCCN1CCCN=CC(C)C1=O` (stereo not shown) [Example 49, 1-(2-hydroxyhexadecyl)aminoethyl-3-methyl-3,6,7,8-tetrahydro-1,5-diazocin-2-one] yielded an MIC [1] of 25 µg/mL (≈ 59 µM), an MIC [2, 18] of 3.12 µg/mL (≈ 7.36 µM) and an MIC [3, 18] of 3.12 µg/mL (≈ 7.36 µM). It also gave an MIC [4, 19] of 200 µg/mL (≈ 472 µM), an MIC [5, 19] of 3.12 µg/mL (≈ 7.36 µM) and an MIC [6, 19] of under 1.56 µg/mL. The MIC [8, 19] was 1.56 µg/mL (≈ 3.68 µM) and the MIC [9, 19] was 6.25 µg/mL (≈ 14.8 µM).
For `CCCCCCCCCCCCCCNCCN1CCN=CC(C)C1=O` (stereo not shown) [Example 40, 4-tetradecylaminoethyl-6-methyl-3,6-dihydro-2H-1,4-diazepin-5-one], the MIC ([1]; Escherichia coli, 24 h) was 6.25 µg/mL (≈ 17.1 µM), the MIC [2, 11] was 1.56 µg/mL (≈ 4.27 µM) and the MIC [3, 12] was 1.56 µg/mL (≈ 4.27 µM). For the same compound, the MIC ([4]; Pseudomonas, IFO3443, 24 h) was 50 µg/mL (≈ 137 µM), the MIC [5, 22] was 3.12 µg/mL (≈ 8.53 µM) and the MIC [6, 23] was under 1.56 µg/mL. It also gave an MIC [7, 15] of 3.12 µg/mL (≈ 8.53 µM), an MIC [8, 16] of under 1.56 µg/mL and an MIC ([9]; Enterococcus faecalis, 24 h) of 3.12 µg/mL (≈ 8.53 µM).
With `CCCCCCCCCCCCCCNCCN1CC[N+](CC(=O)[O-])=C(C)CC1=O` [4-tetradecylaminoethyl-7-methyl-1-azonia-4-azacyclohept-7-en-5-one-1-acetate] the MIC ([1]; Escherichia coli, 24 h) was 100 µg/mL (≈ 236 µM), the MIC ([2]; Staphylococcus aureus, FDA209P, Table 2, derivatives having a carboxylate radical, heart infusion agar, 37° C., 24 hours, read-out: MIC) was 3.12 µg/mL (≈ 7.36 µM) and the MIC ([3]; Desulfovibrio desulfuricans, IFO13699, Table 2, derivatives having a carboxylate radical, heart infusion agar, 37° C., 24 hours, read-out: MIC) was 3.12 µg/mL (≈ 7.36 µM). For the same compound, the MIC ([4]; Pseudomonas, IFO3443, 24 h) was 100 µg/mL (≈ 236 µM), the MIC [5, 22] was 12.5 µg/mL (≈ 29.5 µM) and the MIC [6, 23] was 3.12 µg/mL (≈ 7.36 µM). For the same compound, the MIC ([7]; 24 h) was 6.25 µg/mL (≈ 14.8 µM), the MIC [8, 16] was 3.12 µg/mL (≈ 7.36 µM) and the MIC ([9]; Enterococcus faecalis, 24 h) was 6.25 µg/mL (≈ 14.8 µM).
Work on `CCCCCCCCCCCCCCNCCN1CCCN=CC(C)C1=O` (stereo not shown) [Example 48, 1-tetradecylaminoethyl-3-methyl-3,6,7,8-tetrahydro-1,5-diazocin-2-one] yielded an MIC ([1]; Escherichia coli, 24 h) of 12.5 µg/mL (≈ 32.9 µM), an MIC [2, 11] of 3.12 µg/mL (≈ 8.22 µM) and an MIC [3, 12] of 3.12 µg/mL (≈ 8.22 µM). The MIC ([4]; Pseudomonas, IFO3443, 24 h) was 50 µg/mL (≈ 132 µM), the MIC [5, 22] was 6.25 µg/mL (≈ 16.5 µM) and the MIC [6, 23] was under 1.56 µg/mL. It also gave an MIC [7, 15] of 3.12 µg/mL (≈ 8.22 µM), an MIC [8, 16] of 1.56 µg/mL (≈ 4.11 µM) and an MIC ([9]; Enterococcus faecalis, 24 h) of 6.25 µg/mL (≈ 16.5 µM).
In the case of `CCCCCCCCCCCCCCNCCN1CCN=C(C)CC1=O` [Example 35, 4-tetradecylaminoethyl-7-methyl-3,6-dihydro-2H-1,4-diazepin-5-one], the MIC ([1]; Escherichia coli, 24 h) is reported as 6.25 µg/mL (≈ 17.1 µM), the MIC [2, 11] is reported as 1.56 µg/mL (≈ 4.27 µM) and the MIC [3, 12] is reported as 1.56 µg/mL (≈ 4.27 µM). It also gave an MIC [4, 13] of 54 µg/mL (≈ 148 µM), an MIC [5, 14] of 3.12 µg/mL (≈ 8.53 µM) and an MIC ([6]; Pasteurella multocida, 24 h) of under 1.56 µg/mL. It also gave an MIC [7, 15] of 1.56 µg/mL (≈ 4.27 µM), an MIC ([8]; Staphylococcus epidermidis, 24 h) of under 1.56 µg/mL and an MIC [9, 17] of 3.12 µg/mL (≈ 8.53 µM).
In the case of `CCCCCCCCCCCCCCCCCCCCCCNCCN1CC[N+](CC(=O)[O-])=C(C)CC1=O` [4-docosylaminoethyl-7-methyl-1-azonia-4-azacyclohept-7-en-5-one-1-acetate], the MIC ([1]; Escherichia coli, Table 2, derivatives having a carboxylate radical, heart infusion agar, 37° C., 24 hours, read-out: MIC) is reported as 3200 µg/mL (≈ 5970 µM), the MIC [2, 20] is reported as 12.5 µg/mL (≈ 23.3 µM) and the MIC [3, 21] is reported as 12.5 µg/mL (≈ 23.3 µM).
